Like-named read-outs stand apart in the source and are kept apart here.
Assays:
[1] = tested on: recombinant NL4-3 virus (nef section replaced with Renilla luciferase gene) in MT-2 cells; assay: HIV cell culture assay (antiviral activity, luciferase readout); type: cell-based; conditions: Renilla, NL43, MT-2 cells infected for 4-5 days with recombinant NL4-3 Renilla luciferase virus
In short: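 EC50 was derived by median-effect fitting of Renilla luciferase signal from MT-2 cells. These cells were infected for 4–5 days with NL4-3 reporter virus (nef partly replaced by luciferase; made in 293T cells) in the presence of serially diluted compound. Activity was quantified with a live-cell luciferase substrate.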

[2] = Compound cytotoxicity, XTT-based colorimetric assay; type: cell-based; conditions: human
In short: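 Uninfected MT2 cells, antiviral-assay protocol without virus; XTT colorimetric readout day 4; CC50 reported.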

[3] = uninfected MT2 cells, day 4, XTT, read-out: CC50

Cc1cc(C2(F)CCC(F)(F)CC2)nc2nc([C@H](Cc3cc(F)cc(F)c3)NC(=O)Cn3nc(C(F)F)c4c3C(F)(F)[C@@H]3C[C@H]43)n(-c3ccc(Cl)c4c(NS(C)(=O)=O)nn(CCN5[C@@H]6CC[C@H]5COC6)c34)c(=O)c12 (atropisomer, axis not shown; (P)) [Example 590, N-[(1S)-1-[(3P)-3-(4-chloro-3-methanesulfonamido-1-{2-[(1R,5S)-3-oxa-8-azabicyclo[3.2.1]octan-8-yl]ethyl}-1H-indazol-7-yl)-5-methyl-4-oxo-7-(1,4,4-trifluorocyclohexyl)-3H,4H-pyrido[2,3-d]pyrimidin-2-yl]-2-(3,5-difluorophenyl)ethyl]-2-[(2S,4R)-9-(difluoromethyl)-5,5-difluoro-7,8-diazatricyclo[4.3.0.0^2,^4]nona-1(6),8-dien-7-yl]acetamide]
EC50 [1]: 0.013 nM | CC50 at 4 days [2]: > 20 nM

Cc1cc(C2CCC(F)(F)CC2)nc2nc([C@H](Cc3cc(F)cc(F)c3)NC(=O)Cn3nc(C4CC4)c4c3C[C@@H]3C[C@H]43)n(-c3ccc(Cl)c4c(NS(C)(=O)=O)nn(CCN5C[C@@H]6C[C@H]5CC6(F)F)c34)c(=O)c12 (atropisomer, axis not shown; (P)) [Example 311, N-[(1S)-1-[(3P)-3-(4-chloro-1-{2-[(1S,4S)-5,5-difluoro-2-azabicyclo[2.2.1]heptan-2-yl]ethyl}-3-methanesulfonamido-1H-indazol-7-yl)-7-(4,4-difluorocyclohexyl)-5-methyl-4-oxo-3H,4H-pyrido[2,3-d]pyrimidin-2-yl]-2-(3,5-difluorophenyl)ethyl]-2-[(2S,4S)-9-cyclopropyl-7,8-diazatricyclo[4.3.0.0^2,^4]nona-1(6),8-dien-7-yl]acetamide]
EC50 [1]: 0.013 nM | CC50 at 4 days [2, 3]: > 50 nM

COCCNc1cc(C2CCC(F)(F)CC2)nc2nc([C@H](Cc3cc(F)cc(F)c3)NC(=O)Cn3nc(C(F)F)c4c3C(F)(F)[C@@H]3C[C@H]43)n(-c3ccc(Cl)c4c(NS(C)(=O)=O)nn(CCN5C[C@H]6C[C@@H](C5)O6)c34)c(=O)c12 (atropisomer, axis not shown; (P)) [Example 419, N-[(1S)-1-[(3P)-3-(4-chloro-3-methanesulfonamido-1-{2-[(1R,5S)-6-oxa-3-azabicyclo[3.1.1]heptan-3-yl]ethyl}-1H-indazol-7-yl)-7-(4,4-difluorocyclohexyl)-5-[(2-methoxyethyl)amino]-4-oxo-3H,4H-pyrido[2,3-d]pyrimidin-2-yl]-2-(3,5-difluorophenyl)ethyl]-2-[(2S,4R)-9-(difluoromethyl)-5,5-difluoro-7,8-diazatricyclo[4.3.0.0^2,^4]nona-1(6),8-dien-7-yl]acetamide]
EC50 [1]: 0.011 nM | CC50 at 4 days [2]: > 20 nM

CS(=O)(=O)Nc1nn(CCN2CCC(F)(F)CC2)c2c(-n3c([C@H](Cc4cc(F)cc(F)c4)NC(=O)Cn4nc(C(F)F)c5c4C(F)(F)[C@@H]4C[C@H]54)nc4nc(C5CCC(F)(F)CC5)ccc4c3=O)ccc(Cl)c12 (atropisomer, axis not shown; (P)) [Example 130, N-[(1S)-1-[(3P)-3-{4-chloro-1-[2-(4,4-difluoropiperidin-1-yl)ethyl]-3-methanesulfonamido-1H-indazol-7-yl}-7-(4,4-difluorocyclohexyl)-4-oxo-3H,4H-pyrido[2,3-d]pyrimidin-2-yl]-2-(3,5-difluorophenyl)ethyl]-2-[(2S,4R)-9-(difluoromethyl)-5,5-difluoro-7,8-diazatricyclo[4.3.0.0^2,^4]nona-1(6),8-dien-7-yl]acetamide]
EC50 [1]: 0.013 nM | CC50 at 4 days [2, 3]: > 50 nM

CCNc1cc(C2CCC(F)(F)CC2)nc2nc([C@H](Cc3cc(F)cc(F)c3)NC(=O)Cn3nc(C(F)F)c4c3C(F)(F)[C@@H]3C[C@H]43)n(-c3ccc(Cl)c4c(NS(C)(=O)=O)nn(CCCOC)c34)c(=O)c12 (atropisomer, axis not shown; (P)) [Example 427, N-[(1S)-1-[(3P)-3-[4-chloro-3-methanesulfonamido-1-(3-methoxypropyl)-1H-indazol-7-yl]-7-(4,4-difluorocyclohexyl)-5-(ethylamino)-4-oxo-3H,4H-pyrido[2,3-d]pyrimidin-2-yl]-2-(3,5-difluorophenyl)ethyl]-2-[(2S,4R)-9-(difluoromethyl)-5,5-difluoro-7,8-diazatricyclo[4.3.0.0^2,4]nona-1(6),8-dien-7-yl]acetamide]
EC50 [1]: 0.01 nM | CC50 at 4 days [2, 3]: > 20 nM

COCCCn1nc(NS(C)(=O)=O)c2c(Cl)ccc(-n3c([C@H](Cc4cc(F)cc(F)c4)NC(=O)Cn4nc(C(F)(F)F)c5c4C(F)(F)[C@@H]4C[C@H]54)nc4nc(C5CCC(F)(F)CC5)cc(C)c4c3=O)c21 (atropisomer, axis not shown; (P)) [Example 89, N-[(1S)-1-[(3P)-3-[4-chloro-3-methanesulfonamido-1-(3-methoxypropyl)-1H-indazol-7-yl]-7-(4,4-difluorocyclohexyl)-5-methyl-4-oxo-3H,4H-pyrido[2,3-d]pyrimidin-2-yl]-2-(3,5-difluorophenyl)ethyl]-2-[(2S,4R)-5,5-difluoro-9-(trifluoromethyl)-7,8-diazatricyclo[4.3.0.0^2,^4]nona-1(6),8-dien-7-yl]acetamide]
EC50 [1]: 0.014 nM | CC50 at 4 days [2, 3]: > 50 nM

COCCCn1nc(NS(C)(=O)=O)c2c(Cl)ccc(-n3c([C@H](Cc4cc(F)cc(F)c4)NC(=O)Cn4nc(C(F)F)c5c4C(F)(F)[C@@H]4C[C@H]54)nc4nc(C5CCC(F)(F)CC5)cc(NCCC5CCO5)c4c3=O)c21 (stereo partly drawn) [Example 564, N-[(1S)-1-[(3P)-3-[4-chloro-3-methanesulfonamido-1-(3-methoxypropyl)-1H-indazol-7-yl]-7-(4,4-difluorocyclohexyl)-5-{[2-(oxetan-2-yl)ethyl]amino}-4-oxo-3H,4H-pyrido[2,3-d]pyrimidin-2-yl]-2-(3,5-difluorophenyl)ethyl]-2-[(2S,4R)-9-(difluoromethyl)-5,5-difluoro-7,8-diazatricyclo[4.3.0.0^2,^4]nona-1(6),8-dien-7-yl]acetamide]
EC50 [1]: 0.012 nM | CC50 at 4 days [2, 3]: > 20 nM

Cc1cc(C2(F)CCC(F)(F)CC2)nc2nc([C@H](Cc3cc(F)cc(F)c3)NC(=O)Cn3nc(C(F)F)c4c3C(F)(F)[C@@H]3C[C@H]43)n(-c3ccc(Cl)c4c(NS(C)(=O)=O)nn([C@H](C)C(=O)N5C[C@@H](C)O[C@@H](C)C5)c34)c(=O)c12 (atropisomer, axis not shown; (P)) [Example 743, N-[(1S)-1-[(3P)-3-{4-chloro-1-[(2R)-1-[(2R,6S)-2,6-dimethylmorpholin-4-yl]-1-oxopropan-2-yl]-3-methanesulfonamido-1H-indazol-7-yl}-5-methyl-4-oxo-7-(1,4,4-trifluorocyclohexyl)-3H,4H-pyrido[2,3-d]pyrimidin-2-yl]-2-(3,5-difluorophenyl)ethyl]-2-[(2S,4R)-9-(difluoromethyl)-5,5-difluoro-7,8-diazatricyclo[4.3.0.0^2,^4]nona-1(6),8-dien-7-yl]acetamide]
EC50 [1]: 0.016 nM | CC50 at 4 days [2, 3]: > 20 nM

Cc1cc(C2CCC(F)(F)CC2)nc2nc([C@H](Cc3cc(F)cc(F)c3)NC(=O)Cn3nc(C4CC4)c4c3C[C@@H]3C[C@H]43)n(-c3ccc(Cl)c4c(NS(C)(=O)=O)nn(CCN5CCC(C)(F)CC5)c34)c(=O)c12 (atropisomer, axis not shown; (P)) [Example 278, N-[(1S)-1-[(3P)-3-{4-chloro-1-[2-(4-fluoro-4-methylpiperidin-1-yl)ethyl]-3-methanesulfonamido-1H-indazol-7-yl}-7-(4,4-difluorocyclohexyl)-5-methyl-4-oxo-3H,4H-pyrido[2,3-d]pyrimidin-2-yl]-2-(3,5-difluorophenyl)ethyl]-2-[(2S,4S)-9-cyclopropyl-7,8-diazatricyclo[4.3.0.0^2,^4]nona-1(6),8-dien-7-yl]acetamide]
EC50 [1]: 0.005 nM | CC50 at 4 days [2, 3]: > 50 nM

CS(=O)(=O)Nc1nn(CCN2CCC(F)(F)C2)c2c(-n3c([C@H](Cc4cc(F)cc(F)c4)NC(=O)Cn4nc(C(F)F)c5c4C(F)(F)[C@@H]4C[C@H]54)nc4nc(C5CCC(F)(F)CC5)ccc4c3=O)ccc(Cl)c12 (atropisomer, axis not shown; (P)) [Example 158, N-[(1S)-1-[(3P)-3-{4-chloro-1-[2-(3,3-difluoropyrrolidin-1-yl)ethyl]-3-methanesulfonamido-1H-indazol-7-yl}-7-(4,4-difluorocyclohexyl)-4-oxo-3H,4H-pyrido[2,3-d]pyrimidin-2-yl]-2-(3,5-difluorophenyl)ethyl]-2-[(2S,4R)-9-(difluoromethyl)-5,5-difluoro-7,8-diazatricyclo[4.3.0.0^2,^4]nona-1(6),8-dien-7-yl]acetamide]
EC50 [1]: 0.011 nM | CC50 at 4 days [2, 3]: > 50 nM

Cc1cc(C2(F)CCC(F)(F)CC2)nc2nc([C@H](Cc3cc(F)cc(F)c3)NC(=O)Cn3nc(C(F)F)c4c3C(F)(F)[C@@H]3C[C@H]43)n(-c3ccc(Cl)c4c(NS(C)(=O)=O)nn(CCN5C[C@H]6CC[C@@H](C5)O6)c34)c(=O)c12 (atropisomer, axis not shown; (P)) [Example 589, N-[(1S)-1-[(3P)-3-(4-chloro-3-methanesulfonamido-1-{2-[(1R,5S)-8-oxa-3-azabicyclo[3.2.1]octan-3-yl]ethyl}-1H-indazol-7-yl)-5-methyl-4-oxo-7-(1,4,4-trifluorocyclohexyl)-3H, 4H-pyrido[2,3-d]pyrimidin-2-yl]-2-(3,5-difluorophenyl)ethyl]-2-[(2S,4R)-9-(difluoromethyl)-5,5-difluoro-7,8-diazatricyclo[4.3.0.0^2,^4]nona-1(6),8-dien-7-yl]acetamide]
EC50 [1]: 0.005 nM | CC50 at 4 days [2, 3]: > 20 nM
